The source of these data is patent publication US20160159861A1, “APJ Receptor Compounds” (priority 2013, published 2016).

Broadly, the EC50 is the concentration needed to bring the measured effect to its halfway point.

Where two headings read alike, the source gives them in different places. Peptide text beside a SMILES is read from it.

The target of data set [1] is T1, human APJ receptor (hAPJ) (Homo sapiens, UniProt P35414).
T1 construct: expressed in transfected cells
T1 sequence (P35414 1-380): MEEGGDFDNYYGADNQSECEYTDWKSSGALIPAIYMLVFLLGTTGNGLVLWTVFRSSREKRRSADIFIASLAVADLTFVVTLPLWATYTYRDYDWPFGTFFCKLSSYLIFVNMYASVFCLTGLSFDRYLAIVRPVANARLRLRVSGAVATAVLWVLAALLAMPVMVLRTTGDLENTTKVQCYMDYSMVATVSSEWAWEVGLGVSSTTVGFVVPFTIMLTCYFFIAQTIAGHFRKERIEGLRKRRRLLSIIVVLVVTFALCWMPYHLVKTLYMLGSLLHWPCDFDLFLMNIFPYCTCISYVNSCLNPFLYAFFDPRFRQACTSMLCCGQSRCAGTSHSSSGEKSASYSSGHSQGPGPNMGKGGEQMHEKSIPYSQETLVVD
As to the kind of experiment: HTRF cAMP assay: inhibition of NKH477-stimulated cAMP in HEK cells stably expressing hAPJ. In kind it is cell-based. Particulars: for % IA (cAMP inhibition, hAPJ HEK): intrinsic activity; for Ranking: composite class of EC50 (hAPJ), % IA and % histamine or formal (+) charge; for Emax: HEK293, read-out: % IA, bound stated; for inhibition of NKH477-stimulated increase in cAMP, dose dependent: concentration response curves, FIGS. 1 and 2, HEK cells stably expressing APJ. The gist of the method:
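HEK cells stably expressing hAPJ, induced with 1 nG/mL doxycycline and seeded overnight at 40 k/well. cAMP read by HTRF competitive immunoassay using cryptate-labeled anti-cAMP antibody and d2-labeled cAMP.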

A further data set has as its system rat peritoneal cells. Description: Ex vivo histamine release assay in rat peritoneal cells (vs. Compound 48/80). In kind it is cell-based. From the text: More desirable pharmacological tolerability can include a decrease in an undesirable side effect (e.g., histamine release, an indicator of mast cell degranulation) without a significant loss in activity of the compound.
Screening of the variant G protein receptor compounds against a control compound for histamine release can be done following standard assays. The standard assay can include comparison to a control compound known to elicit a histamine response (e.g., 48/80 having CAS No. 94724-12-6). Such an assay using rat peritoneal cells is described herein for the APJ compounds.
Test compounds were assayed in the ex vivo histamine release assay using a 3-point dose response. Concentrations of total histamine contained in the cells is used to correct for variability in the numbers of mast cells in the lavage per well.
Resident peritoneal cells were harvested from naïve Sprague Dawley rats (male 200-300 gr, Charles River). Rats were euthanized by CO2 asphyxiation and a skin incision was made along the middle-line of the abdomen. Thirty milliliters of HBSS (HyClone, cat#SH 30268.01) containing 20 mM HEPES and 0.2% BSA (heretofore Assay Buffer) were injected intraperitoneally using a 30 mL syringe with the attached 18 gauge needle. The abdomen was gently lavaged for 1-2 min and 7-10 milliliters of the peritoneal lavage were carefully aspirated. Cell count in the peritoneal lavage was determined using Cellometer Auto T4 (Nexcelom Bioscience). The peritoneal cell count was adjusted to […] cells/mL in Assay Buffer. Rat peritoneal cells were kept at room temperature before and during the assay.
For the 10-point assay, 3-fold serial dilutions were prepared for each test compound in 100% DMSO in 96-well plates (Greiner Bio One, Ref#651261)—from 100 μM down to […]. For the 3-point assay, 10-fold serial dilutions were prepared in 100% DMSO at 100 μM, 10 μM and 1 μM concentrations. From this plate, 5 μL of compound were transferred to a new plate containing 45 μL Assay Buffer to generate a compound plate with 10× final concentrations in 10% DMSO with Assay Buffer. In the final plates, column 11 contained 1% DMSO for the low-histamine-releasing control.
Suspensions of the rat peritoneal cells (90 μL of 2.75×10^5 cells/mL; →25,000 cells per well) were introduced into each well of a new 96-well microtiter plate (Greiner Bio One, Ref#651261) and 10 μL aliquots of the serially diluted compounds were transferred to the cells in each well. The microtiter plate was incubated for 30 min at room temperature. Following incubation cells were spun down (500 rpm, 7 min) and supernatants were collected for further analysis. Supernatants were diluted 6 times with the assay buffer (15 μL to 75 μL, for 90 μL total) and released histamine content was determined using HTRF® Histamine assay kit (CisBio, cat#62HTMPEB). To measure the total histamine in each well, cells were lysed by addition of 15 μL 5% TritonX-100 to each well followed by incubation for 15 minutes. The plates were then spun at 3000 rpm for 5 minutes, and 10 μL of supernatant were diluted 9-fold in assay buffer (10 μL to 80 μL for 90 μL total) to make the “total” histamine plate. Histamine content was measured as described above for the “released” histamine values.
The standard positive control was Compound 48/80 (Enzo Life Sciences), a oligomeric polymer mixture produced by the condensation of N-methyl-p-methoxyphenethylamine with formaldehyde. The trimer is the most abundant in the mixture Compound 48/80 is used to promote mast cell degranulation and activates G proteins by a mechanism analogous to that of mastoparan. […] See references: T. Higashijima et al., J. Biol., Chem., 265 14176 (1990); M. Mousli et al., FEBS Lett., 259 260 (1990); K. Gietzen et al., Biochim. Biophys. Acta, 736 109 (1983); K. Gietzen, Biochem. J., 1983 216 611 and C. Bronner et al., Biochim. Biophys. Acta, 920 301(1987).

Setting [2] is: Table 6, hAPJ HEK cells, NKH477-stimulated cAMP, read-out: EC50 (cAMP inhibition, hAPJ HEK).
Where [3] appears, read: EC50 (cAMP inhibition, hAPJ HEK), Table 6, hAPJ HEK cells, NKH477-stimulated cAMP.
Where [4] appears, read: histamine release from rat peritoneal cells relative to Compound 48/80.
[5] abbreviates: HTRF cAMP Assay, per data of Table 6.
Setting [6] is: HTRF cAMP Assay, per data of Table 6, read-out: EC50 (hAPJ), inhibition of cAMP production, bound stated.

Regarding `CCCCCCCCCCCCCCCC(=O)N[C@H](C(=O)N[C@H](C(=O)N[C@@H](Cc1ccccc1)C(=O)N[C@@H](CCCNC(=N)N)C(=O)N[C@@H](CO)C(=O)N1CCC[C@H]1C(=O)N[C@@H](CO)C(=O)N[C@@H](CCC(=O)O)C(=O)N[C@H](CCCCN)C(=O)N[C@@H](CCCNC(=N)N)C(=O)N[C@@H](CCCNC(=N)N)C(=O)N1CCC[C@H]1C(=O)N[C@@H](CO)C(=O)N[C@@H](C)C(=O)N[C@@H](CC(=O)O)C(=O)N[C@H](C(=O)N[C@@H](Cc1ccccc1)C(N)=O)[C@@H](C)CC)C(C)C)[C@@H](C)O` [Compound 22] (HELM PEPTIDE1{[CCCCCCCCCCCCCCCC(=O)[*:2]].T.V.F.R.S.P.S.E.[dK].R.R.P.S.A.D.I.F.[am]}$$$$V2.0), the EC50 in data set [1] (setting [2]) turned out to be 17 nM. For the same compound, the “% IA (cAMP inhibition, hAPJ HEK)” value in data set [1] (Table 6, hAPJ HEK cells) came out at 47%. In addition, the Ranking entry in data set [1] was “* (EC50≦50 nM (hAPJ), % IA<50%)”. The “Histamine (% vs. 48/80)” value with rat peritoneal cells came out at 60%.

Compound `CCCCCCCCCCCCCCCC(=O)N[C@H](C(=O)N1CCC[C@H]1C(=O)N[C@H](C(=O)N[C@@H](Cc1ccccc1)C(=O)N[C@@H](CCCNC(=N)N)C(=O)N[C@@H](CO)C(=O)N[C@@H](CO)C(=O)N1CCC[C@H]1C(=O)N[C@@H](CCC(=O)O)C(=O)N[C@H](CCCCN)C(=O)N[C@@H](CCCNC(=N)N)C(=O)N[C@@H](CCCNC(=N)N)C(=O)N[C@@H](CO)C(=O)N[C@@H](C)C(=O)N[C@@H](CC(=O)O)C(=O)N[C@H](C(=O)N[C@@H](Cc1ccccc1)C(=O)N[C@H](C(N)=O)[C@@H](C)CC)[C@@H](C)CC)C(C)C)[C@@H](C)O` [Compound 2] (HELM PEPTIDE1{[CCCCCCCCCCCCCCCC(=O)[*:2]].T.P.V.F.R.S.S.P.E.[dK].R.R.S.A.D.I.F.I.[am]}$$$$V2.0) registered a concentration for a half-maximal effect (EC50) in data set [1] (setting [3]) of 4 nM. The “% IA (cAMP inhibition, hAPJ HEK)” value in data set [1] (Table 6, hAPJ HEK cells) was 60%. Moreover, in data set [1], the Ranking entry is “** (EC50 25-50 nM (hAPJ), % IA 50-79% and either % histamine>35% or formal (+) charge>1)”. For the same compound, in the data set with rat peritoneal cells (setting [4]), the “Histamine (% vs. 48/80)” value came to 49%.

As for `CCCCCCCCCCCCCCCC(=O)N[C@H](C(=O)N[C@H](C(=O)N1CCC[C@H]1C(=O)N[C@@H](Cc1ccccc1)C(=O)N[C@@H](CCCNC(=N)N)C(=O)N[C@@H](CO)C(=O)N[C@@H](CO)C(=O)N[C@@H](CCC(=O)O)C(=O)N1CCC[C@H]1C(=O)N[C@H](CCCCN)C(=O)N[C@@H](CCCNC(=N)N)C(=O)N[C@@H](CCCNC(=N)N)C(=O)N[C@@H](CO)C(=O)N[C@@H](C)C(=O)N[C@@H](CC(=O)O)C(=O)N[C@H](C(=O)N[C@@H](Cc1ccccc1)C(=O)N[C@H](C(N)=O)[C@@H](C)CC)[C@@H](C)CC)C(C)C)[C@@H](C)O` [Compound 1] (HELM PEPTIDE1{[CCCCCCCCCCCCCCCC(=O)[*:2]].T.V.P.F.R.S.S.E.P.[dK].R.R.S.A.D.I.F.I.[am]}$$$$V2.0), in data set [1] (setting [3]), a half-maximal response (EC50) required 4 nM. Besides, in data set [1] (Table 6, hAPJ HEK cells), the “% IA (cAMP inhibition, hAPJ HEK)” value worked out at 57%. In addition, in data set [1], the Ranking entry was “** (EC50 25-50 nM (hAPJ), % IA 50-79% and either % histamine>35% or formal (+) charge>1)”. The “Histamine (% vs. 48/80)” value in the data set with rat peritoneal cells (setting [4]) came out at 53%.

For `CCCCCCCCCCCCCCCC(=O)N[C@@H](CC(=O)O)C(=O)N[C@H](C(=O)N[C@@H](Cc1ccccc1)C(=O)N[C@@H](CCC(N)=O)C(=O)N[C@@H](CO)C(=O)N[C@@H](CCC(=O)O)C(=O)N[C@H](CCCCN)C(=O)N[C@@H](CCCNC(=N)N)C(=O)N[C@@H](CCCNC(=N)N)C(=O)N[C@@H](CO)C(=O)N[C@@H](C)C(=O)N[C@@H](CC(=O)O)C(=O)N[C@@H](CCC(N)=O)C(=O)N[C@@H](Cc1ccccc1)C(=O)N[C@H](C(N)=O)[C@@H](C)CC)C(C)C` [Compound 17] (HELM PEPTIDE1{[CCCCCCCCCCCCCCCC(=O)[*:2]].D.V.F.Q.S.E.[dK].R.R.S.A.D.Q.F.I.[am]}$$$$V2.0), the Emax in data set [1] (setting [5]) is ≥ 80%. Besides, the results for the EC50 in data set [1] (setting [6]) and in data set [1] (setting [2]) were ≤ 25 nM and 24 nM, respectively. In addition, the “% IA (cAMP inhibition, hAPJ HEK)” value in data set [1] (Table 6, hAPJ HEK cells) came out at 111%. Moreover, in data set [1], the Ranking entry is “***** (EC50≦25 nM (hAPJ), % IA≧80% and either % histamine≦35% or formal (+) charge≦1)”. Further, the “inhibition of NKH477-stimulated increase in cAMP, dose dependent” value in data set [1] is recorded as “inhibited”. The “Histamine (% vs. 48/80)” value in the data set on rat peritoneal cells was found to be 1%.

Regarding `CCCCCCCCCCCCCCCC(=O)N1CCC[C@@H]1C(=O)N[C@H](C(=O)N[C@H](C(=O)N[C@@H](Cc1ccccc1)C(=O)N[C@@H](CCCNC(=N)N)C(=O)N[C@@H](CO)C(=O)N1CCC[C@@H]1C(=O)N[C@@H](CO)C(=O)N[C@@H](CCC(=O)O)C(=O)N[C@H](CCCCN)C(=O)N[C@@H](CCCNC(=N)N)C(=O)N[C@@H](CCCNC(=N)N)C(=O)N[C@@H](CO)C(=O)N[C@@H](C)C(=O)N[C@@H](CC(=O)O)C(=O)N[C@H](C(=O)N[C@@H](Cc1ccccc1)C(N)=O)[C@@H](C)CC)C(C)C)[C@@H](C)O` [Compound 29, pTVFRSpSEkRRSADIF] (HELM PEPTIDE1{[CCCCCCCCCCCCCCCC(=O)[*:2]].[dP].T.V.F.R.S.[dP].S.E.[dK].R.R.S.A.D.I.F.[am]}$$$$V2.0), the Emax in data set [1] (setting [5]) was ≥ 80%. Also, the concentration giving a half-maximal response (EC50) in data set [1] (setting [6]) is ≤ 25 nM. In addition, the 50% effective concentration (EC50) in data set [1] (setting [2]) is 20 nM. For the same compound, the “% IA (cAMP inhibition, hAPJ HEK)” value in data set [1] (Table 6, hAPJ HEK cells) was 80%. Besides, in data set [1], the Ranking entry was “**** (EC50≦25 nM (hAPJ), % IA≧80% and either % histamine>35% or formal (+) charge>1)”; the “inhibition of NKH477-stimulated increase in cAMP, dose dependent” value was “inhibited”. Moreover, the “Histamine (% vs. 48/80)” value with rat peritoneal cells is 47%.
